Laboratory results taken from PMC12259270, “Sensory neuron–expressed FGF13 controls nociceptive signaling in diabetic neuropathy models” (The Journal of Clinical Investigation, 2025).
Residues, ends and D or L forms follow the SMILES beside them. *: point of attachment. Cbz = O=C(OCc1ccccc1)*; OtBu = CC(C)(C)O*

Tested on: C57BL/6 mice
Assay: Capsaicin-induced mechanical hypersensitivity (von Frey)
Type: in vivo, mouse
Design: LVF Mean / HVF Mean / MECHANICAL LVF / MECHANICAL HVF: unit not given here
Text: FGF13 is a neuronal gene ubiquitously transcribed in DRG neuronal subtypes ([43]–[46]). To investigate neuronal subtype enrichment of the FGF13 transcript, we examined a gene panel including FGF13, SCN9A, and several marker genes in mouse single-cell transcriptomic data (Supplemental Figure 10) ([43]–[46]). […] Critically, putative silent nociceptors marked by somatostatin (SST), and the nicotinic cholinergic receptor α-3 subunit (CHRNA3) contribute to development of inflammatory mechanical hyperalgesia ([47]). […] We next determined if PW164 modulation of the FGF13/Nav1.7 complex could suppress nociceptive behaviors in WT mice. We tested whether intraplantar (i.pl.) injection (5 μL) of PW164 altered hind paw withdrawal in response to low or high intensity von Frey filament (LVF or HVF, respectively) mechanical stimulation (Figure 3A). […] Next, we evaluated PW164’s effect on mechanical and thermal hindpaw sensitivity in capsaicin-induced nociceptive hypersensitivity models. […] Next, we performed in vivo target validation in WT mice that received an intrathecal (i.t.) injection in L5 of AAV2-shFGF13 (6 μL, viral titers 1 × 10^12 vector genomes (vg)/mL); a control group received an equal number of AAV2-shCTRL particles (Figure 3C).
Experiments were performed on 6- to 12-week-old male C57BL/6 mice (The Jackson Laboratory, Bar Harbor, ME) housed in the AAALAC-accredited facility at the University of Texas Medical Branch. Mice were group-housed with up to 5 mice per cage on a 12-to-12-hour light–dark cycle and had access to water and food ad libitum. All protocols were approved by the Institutional Animal Care and Use Committee (IACUC) at the University of Texas Medical Branch and in accordance with the National Institutes of Health (NIH) guidelines.
PW164 and ZL192 were dissolved in DMSO and saline in a ratio of 1:10. 0.1% capsaicin (10% ethanol, 10% Tween-20 in saline; Sigma-Aldrich). All the compounds were injected at the center of the hind paw. The control group received a DMSO-saline mixture. […]
Bupivacaine was prepared from a 1:2 dilution with sterile 0.9% saline and locally injected in the center of the paw at 7 mg/ml.
AAV2 viral particles packaged by the University of North Carolina Gene Therapy Core Facility (viral titer ranging […]
Before intrathecal injections in the lumbar region, mice were maintained in an anesthetizing box with 2% isoflurane to induce unconsciousness. Six microliters of viral vector were gently injected into the CSF through a 30-gauge needle with a Hamilton syringe in the lumbar area between vertebrae L4 and L5 by gently gripping the iliac crest of the mouse and inserting the needle with an angle of 45°. The correct procedure was confirmed by the mouse’s tail reflexiv e flick.
Assessment of mechanical sensitivity
Mechanical sensitivity was assessed using von Frey filaments (VFF 0.1g and 1.0 g force) in mice that were either naïve or received intraplantar (i.p.) injection of capsaicin. VFFs were applied at the injection site (capsaicin or […]

[1] = Cap + PW164 0.07 mg/mL, Time (h) 0
[2] = Cap + PW164 0.07 mg/mL, Time (h) 0.5
[3] = Cap + PW164 0.07 mg/mL, Time (h) 1
[4] = Cap + PW164 0.07 mg/mL, Time (h) 1.5
[5] = Cap + PW164 0.07 mg/mL, Time (h) 2
[6] = Cap + PW164 0.07 mg/mL, Time (h) 3
[7] = Cap + PW164 0.21 mg/mL, Time (h) 0
[8] = Cap + PW164 0.21 mg/mL, Time (h) 0.5
[9] = Cap + PW164 0.21 mg/mL, Time (h) 1
[10] = Cap + PW164 0.21 mg/mL, Time (h) 1.5
[11] = Cap + PW164 0.21 mg/mL, Time (h) 2
[12] = Cap + PW164 0.21 mg/mL, Time (h) 3
[13] = Cap + PW164 0.7 mg/mL, Time (h) 0
[14] = Cap + PW164 0.7 mg/mL, Time (h) 0.5
[15] = Cap + PW164 0.7 mg/mL, Time (h) 1
[16] = Cap + PW164 0.7 mg/mL, Time (h) 1.5
[17] = Cap + PW164 0.7 mg/mL, Time (h) 2
[18] = Cap + PW164 0.7 mg/mL, Time (h) 3
[19] = Figure 3 D, AAV2-Control mice after Cap, 0.h min PW164
[20] = Figure 3 D, AAV2-Control mice after Cap, 1h PW164
[21] = Figure 3 D, AAV2-Control mice after Cap, 2h PW164
[22] = Figure 3 D, AAv2-shFGF13 mice after Cap, 0.h min PW164
[23] = Figure 3 D, AAv2-shFGF13 mice after Cap, 1h PW164
[24] = Figure 3 D, AAv2-shFGF13 mice after Cap, 2h PW164

COC(=O)[C@@H](NC(=O)[C@H](CCC(=O)OC(C)(C)C)NC(=O)[C@H](CC(C)C)NC(=O)[C@@H]1CCCN1C(=O)OCc1ccccc1)C(C)C [PW164] (Cbz-PLE(OtBu)V-OMe)
HVF Mean [1]: 50 | LVF Mean [1]: 0 | HVF Mean [2]: 100 | LVF Mean [2]: 62.5 | HVF Mean [3]: 97.5 | LVF Mean [3]: 62.5 | HVF Mean [4]: 85 | LVF Mean [4]: 45 | HVF Mean [5]: 87.5 | LVF Mean [5]: 35 | HVF Mean [6]: 83.75 | LVF Mean [6]: 32.5 | HVF Mean [7]: 51.6667 | LVF Mean [7]: 0 | HVF Mean [8]: 100 | LVF Mean [8]: 60 | HVF Mean [9]: 78.3333 | LVF Mean [9]: 40 | HVF Mean [10]: 83.3333 | LVF Mean [10]: 35 | HVF Mean [11]: 90 | LVF Mean [11]: 30 | HVF Mean [12]: 98.3333 | LVF Mean [12]: 38.3333 | HVF Mean [13]: 50 | LVF Mean [13]: 0 | HVF Mean [14]: 100 | LVF Mean [14]: 61.6667 | HVF Mean (Cap + PW164 0.7 mg/mL, Time (h) 0.75): 80 | HVF Mean [15]: 63.3333 | LVF Mean [15]: 20 | HVF Mean [16]: 63.3333 | LVF Mean [16]: 13.3333 | HVF Mean [17]: 68.3333 | LVF Mean [17]: 21.6667 | HVF Mean [18]: 86.6667 | LVF Mean [18]: 31.6667 | HVF Mean [19]: 43.3333 | LVF Mean [19]: 14.17 | HVF Mean [20]: 50 | LVF Mean [20]: 13.33 | HVF Mean [21]: 45.8333 | LVF Mean [21]: 9.17 | HVF Mean [22]: 41.5152 | LVF Mean [22]: 9.09 | HVF Mean [23]: 37.9091 | LVF Mean [23]: 9.39 | HVF Mean [24]: 41.2121 | LVF Mean [24]: 11.52 | duration of analgesic effect (PW164 0.7 mg/mL i.pl., naive and AAV2-shCTRL mice after capsaicin): at least 2 hours | mechanical sensitivity in AAV2-shFGF13 mice after capsaicin (PW164 5 μL, 0.7mg/mL hind paw): did not further modify | capsaicin-induced mechanical sensitivity (PW164 at the capsaicin injection site, 30 minutes post-capsaicin): inhibited | lowest concentration with dose-dependent antihyperalgesic effect (i.pl., capsaicin model): 0.21 mg/mL
